Results from patent US20240117303A1, “METHODS AND COMPOSITIONS FOR GENERATING HUMAN MIDBRAIN DOPAMINERGIC NEURONS FROM NEURAL PROGENITOR CELLS” (Trailhead Biosystems Inc., priority 2022, published 2024).
“Also recorded” adds a separate entry of the source.

Assays:
[1] = tested on: human pluripotent stem cells; test: HD-DoE 13-factor experiment for stage 1 recipe, gene expression modeled after 3-day treatment; dynamic profile and factor criticality analysis; assay type: cell-based
Description: This example utilizes a method of High-Dimensional Design of Experiments (HD-DoE), as previously described in Bukys et al. (2020) Iscience 23:101346. The method employs computerized design geometries to simultaneously test multiple process inputs and offers mathematical modeling of a deep effector/response space. The method allows for finding combinatorial signaling inputs that control a complex process, such as during cell differentiation. It allows testing of multiple plausible critical process parameters, as such parameters impact output responses, such as gene expression. Because gene expression provides hallmark features of the phenotype of, for example, a human cell, the method can be applied to identify, and understand, which signaling pathways control cell fate. In the current example, the HD-DOE method was applied with the intent to find conditions for induction of midbrain neural progenitor-expressed genes, directly from the pluripotent stem cell state.
To develop the recipe for each stage, the impact of agonists and antagonists of multiple signaling pathways (referred to herein as “effectors”) on the expression of two sets of 53 pre-selected genes after a 3-day treatment was tested and modeled. These effectors are small molecules or proteins that are commonly used during stepwise differentiation of stem cells to specific fates. The choice of the effectors to test was based on current literature on neural induction in the midbrain region of the developing brain and differentiation of stem cells to neural progenitors.
To test the effectors, experiments with at least 8 factors were designed that can assess the response of cells to 48 or more different combinations of effectors in a range of concentrations. To analyze the models, we focused on expression of genes expressed in the midbrain region, including OTX2, DMBX1, FOXA2, LMX1A, and on the absence of GBX2, which is a hindbrain marker. The impact of each effector on gene expression level is defined by a parameter called factor contribution that is calculated for each effector during the modeling.
To identify the recipe of stage 1 of differentiation, cells were treated with various effectors for 3 days and the gene expression of cells was modeled. […] This model consisted of 13 factors including LDN193189, PD173074, BLU9931, Purmorphamine, SC79, MK2206, ZM336372, PD0325901, CHIR99021, XAV939, UCLA-gp130, Tofacitinib and GO 6983.
(§1) To assess the impact of elimination of each validated factor, we used dynamic profile analysis and compared the expression level of genes of interest in absence of each finalized factor while others are present.
In the stage 1 recipe, each of the five finalized factors were removed while the other four factors were present and the expression levels of OTX2, DMBX1, FOXA2 and LMX1A was assessed compared to the levels in the presence of all five factors (FIG. 11A-B). […] Expression level of DMBX1 increased in absence of LDN193189, however values of OTX2, FOXA2 and LMX1A decreased.

[2] = tested on: stage 1 neural stem cells; test: HD-DoE 12-factor experiment for stage 2 recipe (first model, FIG. 5-7, 12); assay type: cell-based, human
Description: To further guide the differentiation of midbrain-committed neural stem cells to neural progenitor cells at stage 2, we performed an additional HD-DoE experiment. We thereby obtained additional gene regulatory models that were used for preparation of differentiation protocol. The basis of this was a 12-factor HD-DoE experiment with focus on initiation of differentiation of cells toward midbrain neural progenitor cells for an additional 3 days after termination of stage 1 treatment. Here, we focused on expression of LMX1A and FOXA2 in neural progenitor cells with low to zero expression of GBX2. LMX1A had significant high expression level in the model with value of 47888. Therefore, we used optimization setting for this gene to identify the positive factors. The factors in this experiment included SC79, MK2206, ZM336372, PD0325901, CHIR99021, A 83-01, TTNPB, AGN193109, GW3965, SR9243, Purmorphamine and GSI-XX.
as §1
In the stage 2 recipe, each of the six finalized factors were removed while the other five factors were present and the expression levels of FOXA2, LMX1A and GBX2 were assessed, compared to the levels in the presence of all factors. According to the first experiment model, the absence of TTNPB lead to a rise of GBX2 expression, while the value of FOXA2 and LMX1A reduced drastically from 10,000 to 0 and 30,000 to 15,000, respectively. The absence of A 83-01 reduced the expression of FOXA2 from 10,000 to 7000, however, as expected, the value of LMX1A increased from 30,000 to 40,000. […] According to the second experiment model, the absence of BMP7 and MK2206 both reduced the level of FOXA2 while increasing the value of LMX1A, with BMP7 as the main effector that led to 0 expression of FOXA2.

[3] = tested on: stage 2 neural progenitors; test: HD-DoE 12-factor model for stage 3 recipe (FIG. 19-23, 29); assay type: cell-based, human
Description: To develop the neuronal differentiation recipes, the impact of various agonist and antagonists (effectors) on maturation of MB neural progenitors was investigated using the HD-DoE method described in Example 1. These effectors were chosen based on available literature on developmental biology, differentiation of stem cells as well as mouse and human single cell RNA-seq data from midbrain neurons at the time.
To engineer the recipe of stage 3 of differentiation, cells were first cultured in the stage 1 and stage 2 media as described herein, then they were treated with combinations of 8 or 12 factors for 3 days and the gene expression of cells in each condition was modeled. To guide the cells towards a subtype of midbrain dopaminergic neurons that reside in Substantia Nigra pars compacta (SNc) region of the brain, neural progenitors need to be SOX6^+ (Pereira et al. (2021) Cell Rep. 37:109975 Oosterveen et al. (2021) Stem Cell Reports 16:2718-2735 Poulin et al. (2020) Trends Neurosci. 43:155-169). CORIN, NGN2 and MSX1 are other markers involved in neurogenesis of dopaminergic neurons originating from floorplate region of developing midbrain (Wang et al. (2020) Cells 9:1489; Samata et al. (2016) Nat Commun. 7:13097; Ono et al. (2007) Development 134:3213-3225; Prakash et al. (2006) J. Physiol. 575:403410).
Therefore, we focused on maximizing expression of SOX6, CORIN, NGN2 and MSX1 in modeling experiments. One of the 12-factor models, the results of which are shown in FIG. 19, including LDN193189, AGN193109, BMP7, TTNPB, PD0325901, A8301, MHY1485, CHIR99021, XAV939, SANT-1, Purmorphamine and MK2206, provided a combination set that could maximize expression level of CORIN to more than 2000.
To assess the impact of elimination of each validated factor identified in Example 5 for the stage 3 and stage 4 recipes, we used dynamic profile analysis and compared the expression level of genes of interest in absence of each finalized factor while others are present.
In the stage 3 recipe, each of the finalized factors were removed in their respective models while other factors were present and the expression level of genes of interest was assessed compared to presence of all factors. When AGN193109 was excluded, level of all CORIN, KCNJ6, MSX1 and SOX6 decreased from 900 to 450, 50 to 35, 140 to 110 and 105 to 60, respectively. […] When PD0325901 was removed, expression levels of CORIN and KCNJ6 increased to 1200 and 70 while levels of MSX1 and SOX6 decreased to 105 and 20. In the absence of CHIR99021, the expression level of CORIN was again increased to 1200 while the level of KCNJ6 and MSX1 dropped to 50 and 115. […] Therefore, it was decided to include this compound in the final recipe. […] Therefore, CHIR99021 was also included in the final recipe.

[4] = Purmorphamine added to the original 4 effectors, dynamic profile
[5] = dynamic profile / model, 12 effectors
[6] = model optimized for maximum expression of FOXA2, positive impact
[7] = model maximizing expression of CORIN, negative impact
[8] = model optimized for LMX1A, positive impact
[9] = model optimized for MSX1, negative regulatory effect
[10] = model optimized for SOX6, negative impact

c1ccc2c(Oc3nc(Nc4ccc(N5CCOCC5)cc4)c4ncn(C5CCCCC5)c4n3)cccc2c1 [Purmorphamine]
impact on expression of DMBX1 ([1]; OTX2-optimized setting): did not have a positive impact
impact on expression of LMX1A ([1]; OTX2-optimized setting): did not have a positive impact
expression level of DMBX1 [1, 4]: 3000
expression level of LMX1A [1, 4]: 450
expression level of OTX2 [1, 4]: 11000
impact on expression of FOXA2 ([1]; dynamic profile, 13 effectors): positive impact
impact on expression of OTX2 ([1]; dynamic profile, 13 effectors): did not have a positive impact
factor contribution ([1]; model optimized for maximum expression of FOXA2, positive effect): 22.2
expression level of LMX1A in absence of the factor ([1]; stage 1 recipe, other four factors present, 300 with all five factors): beneficial
expression level of FOXA2 in absence of the factor ([1]; stage 1 recipe, other four factors present, 600 with all five factors): reduction
expression level of DMBX1 in absence of the factor ([1]; stage 1 recipe, other four factors present, 3000 with all five factors): beneficial
expression level of OTX2 in absence of the factor ([1]; stage 1 recipe, other four factors present, 12000 with all five factors): beneficial
impact on expression of FOXA2 [2, 5]: positive effect; also recorded: positive impact
factor contribution [2, 6]: 15.3
factor contribution ([2]; negative effect on LMX1A expression levels): 26.2
expression level of FOXA2 ([2]; without addition of Purmorphamine, dynamic profile): 5000

Cc1nn(-c2ccccc2)c(C)c1/C=N/N1CCN(Cc2ccccc2)CC1 [SANT-1]
factor contribution [3, 7]: 9.9

CCOC(=O)C1=C(N)Oc2ccc(Cl)cc2C1C(C#N)C(=O)OCC (centres unmarked) [SC79]
factor contribution [2, 8]: 7.3

C/C(=C\c1ccc(C(=O)O)cc1)c1ccc2c(c1)C(C)(C)CCC2(C)C [TTNPB]
factor contribution [3, 9]: 15.5
factor contribution [3, 10]: 9.5
impact on expression of LMX1A [2, 5]: positive impact
factor contribution [2, 8]: 19.5
factor contribution [2, 6]: 10.7
GBX2 expression in absence of the factor ([2]; stage 2 recipe, first experiment model): rise
value of FOXA2 in absence of the factor ([2]; stage 2 recipe, first experiment model, 10,000 with all factors): 0
value of LMX1A in absence of the factor ([2]; stage 2 recipe, first experiment model, 30,000 with all factors): 15,000

Oc1nc(-c2ccc(C(F)(F)F)cc2)nc2c1CSCC2 [XAV939]
factor contribution [3, 7]: 13.5
factor contribution [3, 9]: 11.2
factor contribution [3, 10]: 10.8
